Earlier results in publication PMC4360375 (Journal of Medicinal Chemistry, 2015).

Test system: GABA uptake, rat synaptosome
Conditions: literature data set; ref 10.1021/jm980492e; cited from earlier work

Q: Which pIC50 does the source give for `O=C(O)C1=CCCN(CCOCCC(c2ccccc2)c2ccccc2)C1` [An_1999/4_30, O(CCC(c1ccccc1)c1ccccc1)CCN1CC(=CCC1)C(O)=O] here?
A: The pIC50 was 7.319.

Q: Which pIC50 does the source give for `O=C(O)[C@@H]1CCCN(CCON=C(c2ccccc2)c2ccccc2)C1` [An_1999/4_(R)-7, O(\N=C(\c1ccccc1)/c1ccccc1)CCN1C[C@@H](CCC1)C(O)=O] here?
A: The pIC50 was 6.863.

Q: With `O=C(O)[C@@H]1CCCN(CCCN(c2ccccc2)c2ccccc2)C1` [An_1999/4_(R)-10, OC(=O)[C@@H]1CCCN(C1)CCCN(c1ccccc1)c1ccccc1] as the molecule, how does the pIC50 read?
A: Its pIC50 is 5.046.

Q: For `O=C(O)[C@@H]1CCCN(CCCCN(c2ccccc2)c2ccccc2)C1` [An_1999/4_(R)-11, OC(=O)[C@@H]1CCCN(C1)CCCCN(c1ccccc1)c1ccccc1], which pIC50 is on record?
A: Its pIC50 is 5.585.

Q: For `O=C(O)[C@@H]1CCCN(CCCCCN(c2ccccc2)c2ccccc2)C1` [An_1999/4_(R)-12, OC(=O)[C@@H]1CCCN(C1)CCCCCN(c1ccccc1)c1ccccc1], which pIC50 is on record?
A: Its pIC50 is 5.86.

Q: With `O=C(O)[C@@H]1CCCN(CCCCCCN(c2ccccc2)c2ccccc2)C1` [An_1999/4_(R)-13, OC(=O)[C@@H]1CCCN(C1)CCCCCCN(c1ccccc1)c1ccccc1] as the molecule, how does the pIC50 read?
A: The pIC50 was 6.18.

Q: Which pIC50 does the source give for `O=C(O)[C@@H]1CCCN(CCCCCCCN(c2ccccc2)c2ccccc2)C1` [An_1999/4_(R)-14] here?
A: The pIC50 was 6.638.

Q: For `O=C(O)[C@@H]1CCCN(CCCCCCCCN(c2ccccc2)c2ccccc2)C1` [An_1999/4_(R)-15], which pIC50 is on record?
A: Its pIC50 is 5.889.

Q: Which pIC50 does the source give for `O=C(O)[C@@H]1CCCN(CCCCCCCC(=O)N(c2ccccc2)c2ccccc2)C1` [An_1999/4_(R)-16] here?
A: Its pIC50 is 5.046.

Q: For `O=C(O)[C@@H]1CCCN(CCOCCN(c2ccccc2)c2ccccc2)C1` [An_1999/4_(R)-17, O(CCN1C[C@@H](CCC1)C(O)=O)CCN(c1ccccc1)c1ccccc1], which pIC50 is on record?
A: Its pIC50 is 7.046.

Q: Which pIC50 does the source give for `O=C(O)[C@@H]1CCCN(CCCCOCCN(c2ccccc2)c2ccccc2)C1` [An_1999/4_(R)-18, O(CCCCN1C[C@@H](CCC1)C(O)=O)CCN(c1ccccc1)c1ccccc1] here?
A: Its pIC50 is 6.523.

Same assay, conditions: literature data set; ref 10.1021/jm981027k; cited from earlier work

Q: For `COc1cccc(/C(=N/OCCN2CCC[C@@H](C(=O)O)C2)c2sccc2C)c1` [An_1999/3_86, s1ccc(C)c1\C(=N/OCCN1C[C@@H](CCC1)C(O)=O)\c1cc(OC)ccc1], which pIC50 is on record?
A: The pIC50 was 7.046.

Q: For `CCc1ccsc1C(=NOCCN1CCC[C@@H](C(=O)O)C1)c1sccc1CC` [An_1999/3_87, s1ccc(CC)c1\C(=N\OCCN1C[C@@H](CCC1)C(O)=O)\c1sccc1CC], which pIC50 is on record?
A: Its pIC50 is 7.046.

Q: For `CCc1ccccc1C(=NOCCN1CCC=C(C(=O)O)C1)c1ccccc1CC` [An_1999/3_88, O(\N=C(\c1ccccc1CC)/c1ccccc1CC)CCN1CC(=CCC1)C(O)=O], which pIC50 is on record?
A: The pIC50 was 6.745.

Q: Which pIC50 does the source give for `Cc1ccccc1/C(=N\OCCN1CCC[C@@H](C(=O)O)C1)c1ccccc1F` [An_1999/3_89, Fc1ccccc1/C(=N/OCCN1C[C@@H](CCC1)C(O)=O)/c1ccccc1C] here?
A: The pIC50 was 7.398.

Q: With `Cc1ccccc1/C(=N\OCCN1CCC[C@@H](C(=O)O)C1)c1ccccc1Cl` [An_1999/3_90, Clc1ccccc1/C(=N/OCCN1C[C@@H](CCC1)C(O)=O)/c1ccccc1C] as the molecule, how does the pIC50 read?
A: Its pIC50 is 6.699.

Q: With `Cc1ccccc1/C(=N\OCCN1CCC[C@H](C(=O)O)C1)c1cccc(Cl)c1` [An_1999/3_91, Clc1cc(ccc1)/C(=N/OCCN1C[C@H](CCC1)C(O)=O)/c1ccccc1C] as the molecule, how does the pIC50 read?
A: The pIC50 was 7.046.

Q: For `Cc1ccccc1/C(=N\OCCN1CCC=C(C(=O)O)C1)c1cccc(Cl)c1` [An_1999/3_92, Clc1cc(ccc1)/C(=N/OCCN1CC(=CCC1)C(O)=O)/c1ccccc1C], which pIC50 is on record?
A: The pIC50 was 6.824.

Q: With `O=C(O)[C@@H]1CCCN(CCON=C(c2cccc(Cl)c2)c2cccc(Cl)c2)C1` [An_1999/3_93, Clc1cc(ccc1)\C(=N\OCCN1C[C@@H](CCC1)C(O)=O)\c1cc(Cl)ccc1] as the molecule, how does the pIC50 read?
A: The pIC50 was 6.509.

Q: For `O=C(O)[C@@H]1CCCN(CCON=C(c2ccc(F)cc2Cl)c2ccc(F)cc2Cl)C1` [An_1999/3_94, Clc1cc(F)ccc1\C(=N\OCCN1C[C@@H](CCC1)C(O)=O)\c1ccc(F)cc1Cl], which pIC50 is on record?
A: The pIC50 was 7.

Q: Which pIC50 does the source give for `CN1CCC[C@@H]1/C(=N\OCCN1CCC[C@@H](C(=O)O)C1)c1ccccc1` [An_1999/3_95, O(\N=C(/[C@@H]1N(CCC1)C)\c1ccccc1)CCN1C[C@@H](CCC1)C(O)=O] here?
A: The pIC50 was 7.222.

Q: Which pIC50 does the source give for `Cc1ccccc1/C(=C\OCCN1CCC[C@@H](C(=O)O)C1)c1ccccc1` [An_1999/3_96, O(\C=C(/c1ccccc1C)\c1ccccc1)CCN1C[C@@H](CCC1)C(O)=O] here?
A: Its pIC50 is 7.699.

Q: Which pIC50 does the source give for `Cc1ccccc1/C(=C/OCCN1CCC[C@@H](C(=O)O)C1)c1ccccc1` [An_1999/3_97, O(\C=C(\c1ccccc1C)/c1ccccc1)CCN1C[C@@H](CCC1)C(O)=O] here?
A: Its pIC50 is 7.301.

Q: For `Cc1ccccc1/C(=C\OCCN1CCC[C@@H](C(=O)O)C1)c1ccc(F)cc1C` [An_1999/3_99, Fc1cc(C)c(cc1)\C(=C\OCCN1C[C@@H](CCC1)C(O)=O)\c1ccccc1C], which pIC50 is on record?
A: Its pIC50 is 7.523.

Q: Which pIC50 does the source give for `Cc1cc(F)ccc1C(=COCCN1CCC=C(C(=O)O)C1)c1ccc(F)cc1C` [An_1999/3_100, Fc1cc(C)c(cc1)\C(=C\OCCN1CC(=CCC1)C(O)=O)\c1ccc(F)cc1C] here?
A: Its pIC50 is 7.097.

Q: With `Cc1ccccc1/C(=C\OCCN1CCC[C@@H](C(=O)O)C1)c1ccccc1Cl` [An_1999/3_101, Clc1ccccc1/C(=C/OCCN1C[C@@H](CCC1)C(O)=O)/c1ccccc1C] as the molecule, how does the pIC50 read?
A: Its pIC50 is 8.

Q: Which pIC50 does the source give for `COc1cccc(/C(=C/OCCN2CCC[C@@H](C(=O)O)C2)c2ccccc2C)c1` [An_1999/3_102, O(C)c1cc(ccc1)/C(=C/OCCN1C[C@@H](CCC1)C(O)=O)/c1ccccc1C] here?
A: Its pIC50 is 7.097.

Q: With `CCc1ccccc1C(=COCCN1CCC[C@@H](C(=O)O)C1)c1ccccc1CC` [An_1999/3_103, O(\C=C(\c1ccccc1CC)/c1ccccc1CC)CCN1C[C@@H](CCC1)C(O)=O] as the molecule, how does the pIC50 read?
A: The pIC50 was 7.523.

Q: For `CCc1ccccc1C(=COCCN1CCC=C(C(=O)O)C1)c1ccccc1CC` [An_1999/3_104, O(\C=C(\c1ccccc1CC)/c1ccccc1CC)CCN1CC(=CCC1)C(O)=O], which pIC50 is on record?
A: Its pIC50 is 7.301.

Q: Which pIC50 does the source give for `O=C(O)C1=CCCN(CCOC=C(c2cccc(F)c2)c2cccc(F)c2)C1` [An_1999/3_105, Fc1cc(ccc1)\C(=C\OCCN1CC(=CCC1)C(O)=O)\c1cc(F)ccc1] here?
A: The pIC50 was 6.456.

Q: Which pIC50 does the source give for `O=C(O)[C@@H]1CCCN(CCO/C=C(/c2ccc(F)cc2F)c2cc(F)ccc2F)C1` [An_1999/3_106, Fc1cc(F)ccc1/C(=C/OCCN1C[C@@H](CCC1)C(O)=O)/c1cc(F)ccc1F] here?
A: Its pIC50 is 7.301.

Q: With `O=C(O)[C@@H]1CCCN(CCOC=C(c2cc(F)ccc2F)c2cc(F)ccc2F)C1` [An_1999/3_107, Fc1ccc(F)cc1\C(=C\OCCN1C[C@@H](CCC1)C(O)=O)\c1cc(F)ccc1F] as the molecule, how does the pIC50 read?
A: The pIC50 was 6.745.

Q: For `O=C(O)[C@@H]1CCCN(CCO/C=C(/c2ccccc2)c2ccccc2Cl)C1` [An_1999/3_108, Clc1ccccc1\C(=C/OCCN1C[C@@H](CCC1)C(O)=O)\c1ccccc1], which pIC50 is on record?
A: Its pIC50 is 7.301.

Q: Which pIC50 does the source give for `O=C(O)[C@@H]1CCCN(CCOC=C(c2ccccc2Cl)c2ccccc2Cl)C1` [An_1999/3_109, Clc1ccccc1\C(=C\OCCN1C[C@@H](CCC1)C(O)=O)\c1ccccc1Cl] here?
A: Its pIC50 is 7.301.

Q: For `O=C(O)C1=CCCN(CCOC=C(c2ccccc2Cl)c2ccccc2Cl)C1` [An_1999/3_110, Clc1ccccc1\C(=C\OCCN1CC(=CCC1)C(O)=O)\c1ccccc1Cl], which pIC50 is on record?
A: The pIC50 was 7.921.

Q: Which pIC50 does the source give for `O=C(O)[C@@H]1CCCN(CCOC=C(c2ccc(F)cc2Cl)c2ccc(F)cc2Cl)C1` [An_1999/3_111, Clc1cc(F)ccc1\C(=C\OCCN1C[C@@H](CCC1)C(O)=O)\c1ccc(F)cc1Cl] here?
A: The pIC50 was 7.18.

Q: For `O=C(O)[C@@H]1CCCN(CCOC=C(c2cccc(Cl)c2)c2cccc(Cl)c2)C1` [An_1999/3_112, Clc1cc(ccc1)\C(=C\OCCN1C[C@@H](CCC1)C(O)=O)\c1cc(Cl)ccc1], which pIC50 is on record?
A: Its pIC50 is 6.699.
